Columns and labels:
Format in all cases: cell-based
Details in all cases: after 10, 20, 40 and 60 minutes at all dilutions 1:100, 1:200, 1:400, 1:800
Staphylococcus aureus = assay: Antimicrobial testing by agar dilution, Staphylococcus aureus
Protocol: (§1) The antimicrobial properties of the 6-(3-hydroxyphenyl)-2-methoxy-4-(3-methylphenyl)nicotinonitrile (4) were studied by the method of agar dilution. Test solutions of each compound were prepared in concentration of 1% using dimethylformamide as a solvent then they are diluted in physiological solution to obtain the final experimental dilutions 1:100, 1:200, 1:400, 1:800. The effect of these substances were compared with furacillin in a controllable study. The testing microbes used were gram positive bacteria Staphylococcus aureus, gram negative bacteria Escherichia coli, Pseudomonas aeruginosa and Candida albicans fungi were taken. The experiments used for this survey were meat-pentonlu agar (EPA) for cultivation of bacteria and Saburo environment for fungi. Each experiment used 1 ml of test solution on each plate 500 min. Add 2 drops of emulsified with microbes feel. All experimental samples were taken from the agar after 10, 20, 40, 60 minutes in the environment on the basis of Patrk planted. Bacteria were cultivated at a temperature of 37° C. for 1 day and the mushroom was kept in a thermostat for 2 hours at a temperature of 28° C. in the. Then results were checked.

Escherichia coli = assay: Antimicrobial testing by agar dilution, Escherichia coli
Protocol: as §1

Pseudomonas aeruginosa = assay: Antimicrobial testing by agar dilution, Pseudomonas aeruginosa
Protocol: as §1

Candida albicans = assay: Antimicrobial testing by agar dilution, Candida albicans
Protocol: as §1

Measured: inhibition activity

COc1nc(-c2cccc(O)c2)cc(-c2cccc(C)c2)c1C#N [6-(3-hydroxyphenyl)-2-methoxy-4-(3-methylphenyl)nicotinonitrile]
highest inhibition activity: Staphylococcus aureus | Escherichia coli | Pseudomonas aeruginosa | Candida albicans

Reference: US11939295B1, “6-(3-hydroxyphenyl)-2-methoxy-4-(3-methylphenyl)nicotinonitrile as an antimicrobial compound” (KING FAISAL UNIVERSITY, priority 2023, dated 2024)
